Patent US12364673B2, “Methods and compositions for treating lysosomal storage disorders: ambroxol as treatment agent for Mucopolysaccharidoses III (Sanfilippo syndrome)” (Lysosomal and Rare Disorders Research and Treatment Center, …, priority 2019, dated 2025)

Key:
[1] = system: N-acetyl-alpha-glucosaminidase (NAGLU); assay: NAGLU enzyme activity in patient-derived PBMC; format: cell-based, human; conditions: PBMC from MPS III Type B patient, 5 days incubation
Protocol: PBMC were cultured for 5 days with an increasing concentration of ambroxol. […] We measured enzyme activity in PBMC (peripheral blood mononuclear cell) derived from MPS III Type B patients with NAGLU enzyme deficiency. After incubation for five days in the presence of 1, 10, and 100 μM of ambroxol, NAGLU enzyme activity was measured and compared negative control versus ambroxol incubated cells (FIG. 1). […] PBMC were cultured for 5 days with an increasing concentration of ambroxol.

[2] = system: PBMC; assay: Cell viability of ambroxol incubated PBMC; format: cell-based, human; conditions: 100 μM ambroxol
[3] = system: PBMC; assay: ATP production of ambroxol incubated PBMC; format: cell-based, human; conditions: 100 μM ambroxol
[4] = system: heparan-alpha-glucosaminide N-acetyltransferase (HGSNAT); assay: HGSNAT enzyme activity in PBMC; format: cell-based, human
Protocol: PBMC were cultured for 5 days with an increasing concentration of ambroxol.
HGSNAT enzyme activity was measured and compared as negative control versus ambroxol incubated PBMC derived from a patient with MPS III Type C (FIG. 2).

[5] = system: autophagy fusion with the lysosome; assay: Autophagy fusion staining with DALGreen detection reagent; format: cell-based, human
[6] = system: acidic lysosomes; assay: Lysosome staining with LysoTracker Red DND-99 dye; format: cell-based, human
Protocol: To examine the effects of ambroxol on autophagy-lysosomal pathway, the autophagy dye […] and lysosome marker LysoTracker Red were used. […] The autophagy fusion was studied using autophagy detection reagent […] fluorescence probe stained autophagosome on late-phase autophagy when autophagosome fused with a lysosome. Lysosome organelles were analyzed using LysoTracker Red DND-99 red-fluorescent dye which stained acidic organelles in live cells. PBMC were isolated from the patient with MPS III-B disease, incubated five days with ambroxol, and then were stained. […] Macrophages derived from a patient with MPS III Type C.

[7] = system: heparan sulfate (HS); assay: Heparan sulfate ELISA in PBMC cell extracts; format: cell-based, human
Protocol: To investigate the effect of ambroxol on HS degradation, the heparin sulfate ELISA assay (Aviva Systems Siology) was assessed. PBMC derived from healthy controls and MPS III patients were incubated with a concentration of ambroxol 1, 10 and 100 μM. PBMC after five days of incubation were collected and heparan sulfate levels were measured in cells extracts.

[8] = biological target: T1, glucocerebrosidase (GCase) (Homo sapiens, UniProt P04062); conditions: pH 4.3, near lysosomal pH; cited from earlier work
T1 sequence (P04062 40-536): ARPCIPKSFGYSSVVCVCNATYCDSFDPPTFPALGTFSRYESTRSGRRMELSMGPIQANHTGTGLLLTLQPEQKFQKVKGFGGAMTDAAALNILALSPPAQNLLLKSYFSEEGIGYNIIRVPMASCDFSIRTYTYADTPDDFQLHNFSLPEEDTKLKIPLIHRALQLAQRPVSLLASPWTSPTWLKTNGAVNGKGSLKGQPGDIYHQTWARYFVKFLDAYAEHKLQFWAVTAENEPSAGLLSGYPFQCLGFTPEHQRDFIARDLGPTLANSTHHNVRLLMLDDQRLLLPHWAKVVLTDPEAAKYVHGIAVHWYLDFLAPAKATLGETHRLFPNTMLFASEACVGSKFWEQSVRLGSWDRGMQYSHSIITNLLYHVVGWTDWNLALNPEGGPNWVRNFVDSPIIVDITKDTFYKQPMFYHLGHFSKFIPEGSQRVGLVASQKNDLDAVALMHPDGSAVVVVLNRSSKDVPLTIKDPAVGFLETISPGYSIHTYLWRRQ

[9] = system: lysosomal integral membrane protein-2 (LIMP-2); conditions: cited from earlier work
[10] = PBMC from patient with MPS III-B, five days with ambroxol
[11] = macrophages from patient with MPS III Type C, 5 days with ambroxol

## Nc1c(Br)cc(Br)cc1CN[C@H]1CC[C@H](O)CC1 [ambroxol, trans-4-(2-Amino-3,5-dibromobenzylamino)-cyclohexanol]
[1]; 1 μM ambroxol
  NAGLU enzyme activity increase vs negative control: 15%
[1]; 10 μM ambroxol
  NAGLU enzyme activity increase vs negative control: 15%
[1]; 100 μM ambroxol
  NAGLU activity: Decreasing
[2]
  cell viability: decreasing
[3]
  ATP production: inhibition
[4]; PBMC from a healthy subject, ambroxol incubation (data not shown)
  HGSNAT activity: no increase
[4]; PBMC from a patient with MPS III Type C, 5 days ambroxol incubation
  HGSNAT activity: no increase
[5]; PBMC from healthy control, five days with ambroxol
  autophagy fusion (DALGreen staining): significant increase
[5]; [10]
  activity of autophagy fusion (DALGreen staining): increasing
[5]; PBMC from two patients with MPS III-D, five days with ambroxol
  autophagy fusion (DALGreen staining): significant increase
[5]; [11]
  activity of autophagy fusion (DALGreen staining): increasing
[6]; [10]
  proportion of acidic lysosomes (LysoTracker Red staining): significant increasing
[6]; cells derived from healthy controls and MPS III-B, MPS III-C and MPS III-D patients (summary)
  lysosome function: activates
[6]; [11]
  proportion of acidic lysosomes (LysoTracker Red staining): significant increasing
[7]; PBMC from MPS III-A patient, 5 days with ambroxol, vs negative control
  heparan sulfate (HS) level: decreased
[7]; PBMC from MPS III-B patient, 5 days, 10 μM ambroxol
  heparan sulfate (HS) level: decreased
[7]; PBMC from MPS III-B patient, 5 days, 100 μM ambroxol
  heparan sulfate (HS) level: decreased
[7]; PBMC from MPS III-C patient, 5 days with ambroxol, vs negative control
  heparan sulfate (HS) level: decreasing
[7]; PBMC from MPS III-D patient, 5 days, 10 μM ambroxol
  heparan sulfate (HS) level: decreased
[7]; PBMC from MPS III-D patient, 5 days, 100 μM ambroxol
  heparan sulfate (HS) level: decreased
[7]; PBMC from healthy controls (n=4), 5 days with ambroxol, vs negative control
  heparan sulfate (HS) level: decreased
[8]
  effect on GCase enzyme: activator
[9]
  LIMP-2 level: increased
